# Data reported in patent US20100093018A1, “CELLS […] PROTEINS AND ASSAYS USING SUCH CELLS” (ACHILLION PHARMACEUTICALS, INC., priority 2007, published 2010).
# T1: replicase complex (Hepatitis C virus genotype 1b, UniProt Q9WMX2)
# T1 construct: expressed in transfected cells; host or cells: HCV replicon cells (Huh-7 derived)
# T1 sequence (Q9WMX2 1658-1711 limits assumed): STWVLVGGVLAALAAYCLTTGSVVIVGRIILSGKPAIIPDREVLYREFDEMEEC
# B1: NS4A-cFLAG (HCV NS4A (1b) with C-terminal FLAG antibody tag) (other)
# chain: STWVLVGGVLAALAAYCLTTGSVVIVGRIILSGKPAIIPDREVLYREFDEMEECDYKDDDDK
# notes: also called NS4A-FLAG; product of pCl-neo-NS4A-cFlag
# B2: HCV NS4A protein (other)
# chain: T1 sequence (Q9WMX2 1658-1711 limits assumed)
# notes: also called hepatitis C virus NS4A; monomer of p14
# Columns and labels:
# [1] = test system: ACH-806 resistant replicon cellular lines (806R); experiment: Susceptibility of ACH-806 resistant replicon cellular lines; type: cell-based, hepatitis C virus; conditions: for Fold change in EC50: versus Huh-9-13
# NI-1^R (S282T) = experiment: Susceptibility of NI-1 resistant replicon cell line; type: cell-based, hepatitis C virus; conditions: NI-1^R (S282T) versus Huh-9-13
# [2] = test system: parental replicon cellular line, Huh-9-13; experiment: Susceptibility of parental replicon cellular line; type: cell-based, hepatitis C virus; conditions: for EC50: Hepatitis C virus, read-out: EC50 ± SD
# NM107^R (S282T) = experiment: Susceptibility of NM107 resistant replicon cell line; type: cell-based, hepatitis C virus; conditions: NM107^R (S282T) versus Huh-9-13
# [3] = test system: Luc/NS3-4A^R(C16) replicon; experiment: Fragment-cloned luciferase replicon susceptibility, C16 revertant; type: cell-based, hepatitis C virus
# From the text: (§1) A third approach, fragment cloning, was used to reinforce the role of the C16S mutation and to exclude the role of other nonconsensus mutations in conferring resistant to ACH-806. A ˜3 kb fragment covering the coding region of NS3, NS4A, and part of NS4B was amplified by RT-PCR from total RNA isolated from ACH-806 resistant clone #28. The PCR product was cloned into the nonselectable replicon containing a luciferase reporter gene. Replicon RNA molecules were made from eight individual clones and were transfected into Huh-7 cells to determine the replication capacity by luciferase activity. From the eight clones, two were able to replicate efficiently and sequencing of the entire cloned fragment in these two clones confirmed the existence of C16S mutation in addition to other nonconsensus mutations. The serine at the amino acid residue of NS3 in one of these two clones was then converted back to cysteine using site-directed mutagenesis, leaving other nonconsensus mutations unchanged. The replication capacity of this resulting replicon [Luc/N3-4AR(C16)] was 95% that of its parent [Luc/N3-4AR(S16)] determined as previously described. After transfection into Huh-7 cells, the susceptibility of both replicons was compared. The reversion of serine back to cysteine at amino acid residue 16 of NS3 increased the susceptibility of the replicon to ACH-806 about 10 fold and maintained the susceptibility to other classes of HCV inhibitors (Table 3). Similar results were also obtained with a fragment containing NS3, 4A and part of 4B derived from a resistant cell line carrying A39V mutation (data not shown).
# [4] = test system: Luc/NS3-4A^R(S16) replicon; experiment: Fragment-cloned luciferase replicon susceptibility, S16; type: cell-based; conditions: Hepatitis C virus
# From the text: as §1, with “The reversion of serine back to cysteine at amino acid residue 16 of NS3 increased the susceptibility of the replicon to ACH-806 about 10 fold and maintained the susceptibility to other classes of HCV inhibitors (Table 3). Similar results were also obtained with a fragment containing NS3, 4A and part of 4B derived from a resistant cell line carrying A39V mutation (data not shown).” left out
# NNI-1^R (M414T) = experiment: Susceptibility of NNI-1 resistant replicon cell line; type: cell-based, hepatitis C virus; conditions: NNI-1^R (M414T) versus Huh-9-13
# Luc/NS3-A39V replicon = experiment: Luciferase replicon susceptibility, NS3 A39V; type: cell-based, hepatitis C virus
# Experimental: (§2) To investigate the genetic basis of resistance to ACH-806 in the resistant replicon cellular lines, specifically the role of C16S and A39V in NS3, and 1585T 1 in NS5B, we introduced these mutations separately into a nonselectable replicon containing a luciferase reporter gene. Following the transfection of the parental replicon RNA molecule and the C16S, A39V and I585T variant replicon RNA molecules into Huh-7 cells, the replication capacity of all replicons was determined as described in Method and Materials. Replicon RNA carrying the A39V mutation replicated as efficiently as its parent, whereas the C16S and I585T mutations caused a slight decrease in the replication capacity (about 75% that of the parental replicon). The susceptibility of these four replicons to ACH-806 as well as to other classes of inhibitors was compared side by side, and the results are summarized in Table 2.
# HCV replicon = HCV replicon assay (Example 1); type: cell-based; conditions: Hepatitis C virus; Huh-7 cells expressing the HCV replicon
# Experimental: The ability to inhibit viral replication of Hepatitis C can be tested using the HCV replicon expressed in cultured cells in which an HCV replicon construct has been incorporated. The HCV replicon system was described by Bartenschlager, et. al (Science, 285, pp. 110-113, 1999). The replicon system is predictive of in vivo activity against HCV; compounds that are active in humans uniformly evidence activity in the replicon assay.
# In this assay HCV replicon containing cells are treated with different concentrations of the test compound to ascertain the ability of the test compound to suppress replication of the HCV replicon. As a positive control, HCV replicon-containing cells are treated with different concentrations of interferon alpha, a known inhibitor of HCV replication. The replicon assay system includes Neomycin Phosphotransferase (NPT) as a component of the replicon itself as a marker allowing convenient detection of the transcription of replicon gene products in the host cell. Cells in which the HCV replicon is actively replicating have high levels of NPT; the level of NPT is proportional to HCV replication. […] The NPT level of each sample may be measured using a captured ELISA. […]
# HCV replicon-containing cells are examined under a microscope to ensure that cells growing well. […] The cells are counted. […]
# replicase complex = target: T1, replicase complex; experiment: Replicase activity in treated replicon cells (FIG. 3); type: cell-based; conditions: 16 hour treatment of replicon cells, concentrations as low as 50 μM
# From the text: FIG. 3. ACH-806 is a potent inhibitor of functional replicase complex production.
# Luc/Parent replicon = experiment: Luciferase replicon susceptibility, parent; type: cell-based; conditions: Hepatitis C virus, Luc/Parent replicon in Huh-7 cells, two independent experiments
# Experimental: as §2
# Luc/NS5B-I585T = type: cell-based, hepatitis C virus
# Experimental: as §2
# Luc/NS3-C16S replicon = experiment: Luciferase replicon susceptibility, NS3 C16S; type: cell-based, hepatitis C virus
# Experimental: as §2
# VX-950^R (A156T) = experiment: Susceptibility of VX-950 resistant replicon cell line; type: cell-based, hepatitis C virus; conditions: VX-950^R (A156T) versus Huh-9-13
# [5] = test system: C16S or A39V replicon variant; experiment: Colony formation with selectable replicon under G418 and ACH-806; type: cell-based, hepatitis C virus; conditions: C16S or A39V versus parental selectable replicon
# From the text: (§3) To further confirm the role of C16S and A39V in conferring resistance to ACH-806, we introduced both mutations, separately, into a selectable replicon which carries the neo gene and the adaptive mutations that differ from the nonselectable replicon. Following transfection of the parental replicon RNA, the C16S replicon RNA and A39V replicon RNA into Huh-7 cells, the susceptibility of these three replicons to ACH-806, as evaluated by the number of colonies formed under the treatment of both G418 and ACH-806, was compared side by side. Again, an approximately 10-fold reduction in the susceptibility of C16S or A39V replicon variant to ACH-806 was observed.
# BILN 2061^R (D168V) = experiment: Susceptibility of BILN 2061 resistant replicon cell line; type: cell-based, hepatitis C virus; conditions: BILN 2061^R (D168V) versus Huh-9-13
# [6] = test system: replicon variants carrying either the C16S or A39V mutation; experiment: Summary of three approaches on mutant replicon variants; type: cell-based, hepatitis C virus; conditions: all three approaches
# Experimental: To investigate the genetic basis of resistance to ACH-806 in the resistant replicon cellular lines, specifically the role of C16S and A39V in NS3, and 1585T 1 in NS5B, we introduced these mutations separately into a nonselectable replicon containing a luciferase reporter gene. Following the transfection of the parental replicon RNA molecule and the C16S, A39V and I585T variant replicon RNA molecules into Huh-7 cells, the replication capacity of all replicons was determined as described in Method and Materials. […]
# as §3, with “Again, an approximately 10-fold reduction in the susceptibility of C16S or A39V replicon variant to ACH-806 was observed.” left out
# A third approach, fragment cloning, was used to reinforce the role of the C16S mutation and to exclude the role of other nonconsensus mutations in conferring resistant to ACH-806. […] The replication capacity of this resulting replicon [Luc/N3-4AR(C16)] was 95% that of its parent [Luc/N3-4AR(S16)] determined as previously described. […]
# [7] = target: the molecule itself; experiment: Western blot of transfected cell lysate, treated with ACH-806
# [8] = target: the molecule itself; experiment: anti-NS4A immunoprecipitation and immunoblot of replicon cells or NS4A-transfected cells; dimer promoted by the compound ACH-806
molecule,measurement,setting,value
"CCCCCOc1ccc(NC(=S)NC(=O)c2cccnc2)cc1C(F)(F)F [ACH-806, 1-nicotinoyl-3-(4-(pentyloxy)-3-(trifluoromethyl)phenyl)thiourea]",Fold change in EC50,"[1]; 806^R #6 (Selection 2), NS3 A39V",18.6
same,Fold change in EC50,"[1]; 806^R #8 (Selection 2), NS3 A39V",9.5
same,Fold change in EC50,"[1]; 806^R #9 (Selection 2), NS3 A39V",11.5
same,Fold change in EC50,"[1]; 806^R #22 (Selection 1), NS3 C16S",13.9
same,Fold change in EC50,"[1]; 806^R #23 (Selection 1), NS3 C16S",18.6
same,Fold change in EC50,"[1]; 806^R #24 (Selection 1), NS3 C16S",11.2
same,Fold change in EC50,"[1]; 806^R #25 (Selection 1), NS3 C16S",14.9
same,Fold change in EC50,"[1]; 806^R #28 (Selection 1), NS3 C16S",21.3
same,Average fold change in EC50,[1]; average over 806^R cell lines,14.9
same,Fold change in EC50,NI-1^R (S282T),0.8
same,EC50,[2],40 nM
same,Fold change in EC50,[2]; Parental cell line (Table 1),1.0
same,Fold change in EC50,[2]; Parental cell line (Table 4),1.0
same,Fold change in EC50,NM107^R (S282T),0.5
same,increase of susceptibility on reversion of serine to cysteine at residue 16 of NS3,[3]; C16 revertant versus S16 replicon,about 10 fold
same,EC50,[3]; Hepatitis C virus,20 nM
same,EC90,[3]; Hepatitis C virus,240 ± 10 nM
same,EC50,[4],270 ± 40 nM
same,EC90,[4],2350 ± 240 nM
same,Fold change in EC50,NNI-1^R (M414T),0.9
same,"Fold change in potency, EC50","Luc/NS3-A39V replicon; Luc/NS3-A39V versus Luc/Parent replicon, one experiment",14
same,"Fold change in potency, EC50",Luc/NS3-A39V replicon; {},14.0
same,"Fold change in potency, EC90",Luc/NS3-A39V replicon; {},13.7
same,EC50,HCV replicon,14 nM
same,reduction of replicase activity,replicase complex,more than 50%
same,EC50,Luc/Parent replicon; read-out: Potency EC50,10 ± 10 nM
same,EC90,Luc/Parent replicon; read-out: Potency EC90,80 ± 10 nM
same,"Fold change in potency, EC50",Luc/NS5B-I585T,0.7 ± 0.1
same,"Fold change in potency, EC90",Luc/NS5B-I585T,1.1 ± 0.1
same,"Fold change in potency, EC50",Luc/NS3-C16S replicon; Luc/NS3-C16S versus Luc/Parent replicon,12
same,"Fold change in potency, EC50",Luc/NS3-C16S replicon; {},11.1 ± 1.0
same,"Fold change in potency, EC90",Luc/NS3-C16S replicon; {},11.3 ± 0.9
same,Fold change in EC50,VX-950^R (A156T),0.6
same,reduction in the susceptibility (number of colonies formed),[5],approximately 10 fold
same,Fold change in EC50,BILN 2061^R (D168V),1.1
same,decrease in the susceptibility,[6],10-15 fold
COc1ccc2c(O[C@@H]3C[C@H]4C(=O)N[C@]5(C(=O)O)C[C@H]5/C=C\CCCCC[C@H](NC(=O)OC5CCCC5)C(=O)N4C3)cc(-c3csc(NC(C)C)n3)nc2c1 [BILN 2061],Fold change in EC50,NI-1^R (S282T),1.4
same,EC50,[2],1.2 nM
same,Fold change in EC50,[2]; Parental cell line (Table 4),1.0
same,Fold change in EC50,NM107^R (S282T),1.1
same,Fold change in EC50,NNI-1^R (M414T),2.8
same,Fold change in EC50,VX-950^R (A156T),>100
same,Fold change in EC50,BILN 2061^R (D168V),>100
C[C@@]1(O)[C@H](O)[C@@H](CO)O[C@H]1n1ccc(N)nc1=O [NM107],Fold change in EC50,NI-1^R (S282T),>68.7
same,Fold change in EC50,[2]; Parental cell line (Table 4),1.0
same,Fold change in EC50,NM107^R (S282T),30.7
CCC[C@H](NC(=O)[C@@H]1[C@H]2CCC[C@H]2CN1C(=O)[C@@H](NC(=O)[C@@H](NC(=O)c1cnccn1)C1CCCCC1)C(C)(C)C)C(=O)C(=O)NC1CC1 [VX-950],EC50,[2],610 nM
same,Fold change in EC50,[2]; Parental cell line (Table 4),1.0
same,Fold change in EC50,NM107^R (S282T),0.3
same,Fold change in EC50,NNI-1^R (M414T),2.3
same,Fold change in EC50,BILN 2061^R (D168V),2.9
B1,binding result,[7],binds
B2,binding result,[8],binds
